Measured values taken from paper PMC9866191, “Novel 9-Benzylaminoacridine Derivatives as Dual Inhibitors of Phosphodiesterase 5 and Topoisomerase II for the Treatment of Colon Cancer” (Molecules, 2023).

How the values were obtained:
Experiment in all cases: NCI-60 one-dose screen
Type in all cases: cell-based
[1] = tested on: NCI-H226; conditions: Homo sapiens; NCI-H226, Non-small cell lung panel; single dose 10^−5 M; read-out: Growth inhibition %
[2] = tested on: K-562; conditions: Homo sapiens, K562; K-562, Leukemia panel; single dose 10^−5 M; read-out: Growth inhibition %
[3] = tested on: HCC-2998; conditions: Homo sapiens; HCC-2998, Colon Cancer panel; single dose 10^−5 M; read-out: Growth inhibition %
[4] = tested on: U251; conditions: Homo sapiens, U-251; U251, CNS Cancer panel; single dose 10^−5 M; read-out: Growth inhibition %
[5] = tested on: HOP-62; conditions: Homo sapiens; HOP-62, Non-small cell lung panel; single dose 10^−5 M; read-out: Growth inhibition %
[6] = tested on: SF-539; conditions: Homo sapiens; SF-539, CNS Cancer panel; single dose 10^−5 M; read-out: Growth inhibition %
[7] = tested on: DU-145; conditions: Homo sapiens; DU-145, Prostate Cancer panel; single dose 10^−5 M; read-out: Growth inhibition %
[8] = tested on: SK-OV-3; conditions: Homo sapiens; SK-OV-3, Ovarian Cancer panel; single dose 10^−5 M; read-out: Growth inhibition %
[9] = tested on: SK-MEL-28; conditions: Homo sapiens; SK-MEL-28, Melanoma panel; single dose 10^−5 M; read-out: Growth inhibition %
[10] = tested on: SW-620; conditions: Homo sapiens; SW-620, Colon Cancer panel; single dose 10^−5 M; read-out: Growth inhibition %
[11] = tested on: UO-31; conditions: Homo sapiens; UO-31, Renal Cancer panel; single dose 10^−5 M; read-out: Growth inhibition %
[12] = tested on: KM12; conditions: Homo sapiens; KM12, Colon Cancer panel; single dose 10^−5 M; read-out: Growth inhibition %
[13] = tested on: COLO 205; conditions: Homo sapiens; COLO 205, Colon Cancer panel; single dose 10^−5 M; read-out: Growth inhibition %
[14] = tested on: NCI-H522; conditions: Homo sapiens; NCI-H522, Non-small cell lung panel; single dose 10^−5 M; read-out: Growth inhibition %
[15] = tested on: CAKI-1; conditions: Homo sapiens; CAKI-1, Renal Cancer panel; single dose 10^−5 M; read-out: Growth inhibition %
[16] = tested on: UACC-62; conditions: Homo sapiens; UACC-62, Melanoma panel; single dose 10^−5 M; read-out: Growth inhibition %
[17] = tested on: A549/ATCC; conditions: Homo sapiens, Non-small cell lung panel, single dose 10^−5 M, read-out: Growth inhibition %
[18] = tested on: MDA-MB-468; conditions: Homo sapiens; MDA-MB-468, Breast Cancer panel; single dose 10^−5 M; read-out: Growth inhibition %
[19] = tested on: PC-3; conditions: Homo sapiens; PC-3, Prostate Cancer panel; single dose 10^−5 M; read-out: Growth inhibition %
[20] = tested on: BT-549; conditions: Homo sapiens; BT-549, Breast Cancer panel; single dose 10^−5 M; read-out: Growth inhibition %
[21] = tested on: SF-295; conditions: Homo sapiens; SF-295, CNS Cancer panel; single dose 10^−5 M; read-out: Growth inhibition %
[22] = tested on: SN12C; conditions: Homo sapiens, Renal Cancer panel, single dose 10^−5 M, read-out: Growth inhibition %
[23] = tested on: RXF 393; conditions: Homo sapiens; RXF 393, Renal Cancer panel; single dose 10^−5 M; read-out: Growth inhibition %
[24] = tested on: A498; conditions: Homo sapiens; A498, Renal Cancer panel; single dose 10^−5 M; read-out: Growth inhibition %
[25] = tested on: SNB-19; conditions: Homo sapiens; SNB-19, CNS Cancer panel; single dose 10^−5 M; read-out: Growth inhibition %
[26] = tested on: MCF7; conditions: Homo sapiens; MCF7, Breast Cancer panel; single dose 10^−5 M; read-out: Growth inhibition %
[27] = tested on: HCT-116; conditions: Homo sapiens, read-out: Growth inhibition %
[28] = tested on: SR; conditions: Homo sapiens, Leukemia panel, single dose 10^−5 M, read-out: Growth inhibition %
[29] = tested on: SK-MEL-5; conditions: Homo sapiens; SK-MEL-5, Melanoma panel; single dose 10^−5 M; read-out: Growth inhibition %
[30] = tested on: ACHN; conditions: Homo sapiens, Renal Cancer panel, single dose 10^−5 M, read-out: Growth inhibition %
[31] = tested on: 786-0; conditions: Homo sapiens; 786-0, Renal Cancer panel; single dose 10^−5 M; read-out: Growth inhibition %
[32] = tested on: NCI/ADR-RES; conditions: Homo sapiens, Ovarian Cancer panel, single dose 10^−5 M, read-out: Growth inhibition %

COc1ccc(CNc2c3ccccc3nc3ccccc23)cc1OC [Compound 18, Acridin-9-yl-(3,4-dimethoxybenzyl)-amine]
inhibition at 10 µM [1]: 72% | inhibition at 10 µM [2]: 91.2% | inhibition at 10 µM [3]: 69.9% | inhibition at 10 µM [4]: 76.8% | inhibition at 10 µM [5]: 65.5% | inhibition at 10 µM [6]: 84.7% | inhibition at 10 µM [7]: 75.3% | inhibition at 10 µM [8]: 58.9% | inhibition at 10 µM [9]: 64.8% | inhibition at 10 µM [10]: 84% | inhibition at 10 µM [11]: 87.9% | inhibition at 10 µM [12]: 68.4% | inhibition at 10 µM [13]: 94.7% | inhibition at 10 µM [14]: 81.8% | inhibition at 10 µM [15]: 89.5% | inhibition at 10 µM [16]: 73.2% | inhibition at 10 µM [17]: 83.7% | inhibition at 10 µM [18]: 123% | inhibition at 10 µM [19]: 78% | inhibition at 10 µM [20]: 57.9% | inhibition at 10 µM [21]: 81.9% | inhibition at 10 µM [22]: 77.5% | inhibition at 10 µM [23]: 96.4% | inhibition at 10 µM [24]: 112% | inhibition at 10 µM [25]: 78.2% | inhibition at 10 µM [26]: 99.3% | inhibition at 10 µM [27]: 87.8% | inhibition at 10 µM [28]: 91.4% | inhibition at 10 µM [29]: 82.5% | inhibition at 10 µM [30]: 95.9% | inhibition at 10 µM [31]: 74.6% | inhibition at 10 µM [32]: 80.7%

COc1ccc(CNc2c3ccccc3nc3ccc(OC)cc23)cc1 [Compound 27, (2-Methoxyacridin-9-yl)-(4-methoxybenzyl)-amine]
inhibition at 10 µM [1]: 66.2% | inhibition at 10 µM [2]: 99.7% | inhibition at 10 µM [3]: 158% | inhibition at 10 µM [4]: 83.9% | inhibition at 10 µM [5]: 65.9% | inhibition at 10 µM [6]: 91.5% | inhibition at 10 µM [7]: 80% | inhibition at 10 µM [8]: 52.9% | inhibition at 10 µM [9]: 58.7% | inhibition at 10 µM [10]: 84.2% | inhibition at 10 µM [11]: 93.8% | inhibition at 10 µM [12]: 72.4% | inhibition at 10 µM [13]: 151% | inhibition at 10 µM [14]: 73.8% | inhibition at 10 µM [15]: 80.1% | inhibition at 10 µM [16]: 57.4% | inhibition at 10 µM [17]: 85.4% | inhibition at 10 µM [18]: 115% | inhibition at 10 µM [19]: 94.5% | inhibition at 10 µM [20]: 57% | inhibition at 10 µM [21]: 80.6% | inhibition at 10 µM [22]: 79.2% | inhibition at 10 µM [23]: 103% | inhibition at 10 µM [24]: 106% | inhibition at 10 µM [25]: 77.3% | inhibition at 10 µM [26]: 130% | inhibition at 10 µM [27]: 87.3% | inhibition at 10 µM [28]: 116% | inhibition at 10 µM [29]: 88.9% | inhibition at 10 µM [30]: 89.8% | inhibition at 10 µM [31]: 85% | inhibition at 10 µM [32]: 83.8%

c1csc(-c2ccc(CNc3c4ccccc4nc4ccccc34)cc2)c1 [Compound 24, Acridin-9-yl-(4-thiophen-2-yl-benzyl)-amine]
inhibition at 10 µM [1]: 31% | inhibition at 10 µM [2]: 140% | inhibition at 10 µM [3]: 187% | inhibition at 10 µM [4]: 173% | inhibition at 10 µM [5]: 45.4% | inhibition at 10 µM [6]: 87.5% | inhibition at 10 µM [7]: 38.3% | inhibition at 10 µM [8]: 35% | inhibition at 10 µM [9]: 186% | inhibition at 10 µM [10]: 172% | inhibition at 10 µM [11]: 72% | inhibition at 10 µM [12]: 73.7% | inhibition at 10 µM [13]: 94.9% | inhibition at 10 µM [14]: 71.1% | inhibition at 10 µM [15]: 64.5% | inhibition at 10 µM [16]: 35.5% | inhibition at 10 µM [17]: 73.3% | inhibition at 10 µM [18]: 173% | inhibition at 10 µM [19]: 76% | inhibition at 10 µM [20]: 66.3% | inhibition at 10 µM [21]: 84.2% | inhibition at 10 µM [22]: 36.8% | inhibition at 10 µM [23]: 114% | inhibition at 10 µM [24]: 102% | inhibition at 10 µM [25]: 53.8% | inhibition at 10 µM [26]: 163% | inhibition at 10 µM [27]: 183% | inhibition at 10 µM [28]: 144% | inhibition at 10 µM [29]: 191% | inhibition at 10 µM [30]: 41.4% | inhibition at 10 µM [31]: 70% | inhibition at 10 µM [32]: 88.8%

COc1ccc2nc3ccccc3c(NCc3ccc(F)cc3)c2c1 [Compound 28, (4-Fluorobenzyl)-(2-methoxyacridin-9-yl)-amine]
inhibition at 10 µM [1]: 70% | inhibition at 10 µM [2]: 98% | inhibition at 10 µM [3]: 178% | inhibition at 10 µM [4]: 77.9% | inhibition at 10 µM [5]: 71.8% | inhibition at 10 µM [6]: 96.2% | inhibition at 10 µM [7]: 83.5% | inhibition at 10 µM [8]: 62.1% | inhibition at 10 µM [9]: 64.7% | inhibition at 10 µM [10]: 85.3% | inhibition at 10 µM [11]: 108% | inhibition at 10 µM [12]: 71.3% | inhibition at 10 µM [13]: 154% | inhibition at 10 µM [14]: 81.8% | inhibition at 10 µM [15]: 92.8% | inhibition at 10 µM [16]: 60.9% | inhibition at 10 µM [17]: 80.3% | inhibition at 10 µM [18]: 124% | inhibition at 10 µM [19]: 82.9% | inhibition at 10 µM [20]: 65% | inhibition at 10 µM [21]: 85.6% | inhibition at 10 µM [22]: 83% | inhibition at 10 µM [23]: 119% | inhibition at 10 µM [24]: 108% | inhibition at 10 µM [25]: 82.3% | inhibition at 10 µM [26]: 128% | inhibition at 10 µM [27]: 91.1% | inhibition at 10 µM [28]: 101% | inhibition at 10 µM [29]: 107% | inhibition at 10 µM [30]: 94.3% | inhibition at 10 µM [31]: 93.2% | inhibition at 10 µM [32]: 84.9%

COc1ccc(CNc2c3ccccc3nc3ccccc23)c(OC)c1 [Compound 17, Acridin-9-yl-(2,4-dimethoxybenzyl)-amine]
inhibition at 10 µM [1]: 53.7% | inhibition at 10 µM [2]: 86.8% | inhibition at 10 µM [3]: 64.4% | inhibition at 10 µM [4]: 58.2% | inhibition at 10 µM [5]: 52.8% | inhibition at 10 µM [6]: 85.4% | inhibition at 10 µM [7]: 50.6% | inhibition at 10 µM [8]: 36.7% | inhibition at 10 µM [9]: 30.7% | inhibition at 10 µM [10]: 79.3% | inhibition at 10 µM [11]: 72% | inhibition at 10 µM [12]: 45.7% | inhibition at 10 µM [13]: 75.4% | inhibition at 10 µM [14]: 59.4% | inhibition at 10 µM [15]: 63.8% | inhibition at 10 µM [16]: 45.5% | inhibition at 10 µM [17]: 64.8% | inhibition at 10 µM [18]: 95.2% | inhibition at 10 µM [19]: 52.9% | inhibition at 10 µM [20]: 33.3% | inhibition at 10 µM [21]: 63.7% | inhibition at 10 µM [22]: 69% | inhibition at 10 µM [23]: 66.6% | inhibition at 10 µM [24]: 111% | inhibition at 10 µM [25]: 66.5% | inhibition at 10 µM [26]: 85.5% | inhibition at 10 µM [27]: 87.2% | inhibition at 10 µM [28]: 81.9% | inhibition at 10 µM [29]: 29.6% | inhibition at 10 µM [30]: 74.2% | inhibition at 10 µM [31]: 60.9% | inhibition at 10 µM [32]: 64.4%
